The text below walks through data of patent US11186576B2, “Pyrazolo[1,5-A][1,3,5]triazine and pyrazolo[1,5-A]pyrimidine derivatives as CDK inhibitors” (Aurigene Discovery Technologies Limited, priority 2015, dated 2021).

Some results are limits rather than exact numbers.

The assay concerns the target CDK7/CycH/MNAT1 (Homo sapiens (Human), UniProt P50613). As to the kind of experiment: Biochemical assay for CDK7 (TR-FRET kinase assay). The conditions noted are these: 60 min pre-incubation, 1 mM ATP; for inhibition at 10 µM: 10 μM compound, read-out: % inhibition @ 10 μM; for IC50: read-out: IC50. As to the method:
The ability of compounds to inhibit CDK7 kinase activity was tested in a TR-FRET assay using 5 nM of CDK7/CycH/MNAT1 obtained from Invitrogen, USA. Test compounds were pre-incubated with the kinase at room temperature for 60 min. After incubation, substrate mix [100 nM Ultra-light MBP (Perkin Elmer, USA) and 1 mM ATP (Sigma)] was added. The above reaction was stopped by the addition of 40 mM EDTA after 60 minutes of kinase reaction. 1 nM Eu-labelled antiphospho-MBP antibody [Perkin Elmer, USA] was added, mixed well and the fluorescence emission at 615 nm and 665 nm [excitation at 340 nm] was measured. The final DMSO concentration in the assay was 1%. For IC50 determination, appropriate concentrations were made by ⅓^rd serial dilutions of 10 mM DMSO stock solution of test compound. All the fluorescence measurements were made in a Victor 3 Multilabel Counter [Perkin Elmer, USA]. The IC50 was determined by fitting the dose response data to sigmoidal curve fitting equation using GraphPad Prism software V5. To identify compounds that inhibit CDK7 irreversibly, time depended inhibition studies were carried by pre-incubating compound with the enzyme at three time points (20, 60 and 180 min) and carrying out assay as described above.

CDK7/CycH/MNAT1, sequence (P50613 whole entry): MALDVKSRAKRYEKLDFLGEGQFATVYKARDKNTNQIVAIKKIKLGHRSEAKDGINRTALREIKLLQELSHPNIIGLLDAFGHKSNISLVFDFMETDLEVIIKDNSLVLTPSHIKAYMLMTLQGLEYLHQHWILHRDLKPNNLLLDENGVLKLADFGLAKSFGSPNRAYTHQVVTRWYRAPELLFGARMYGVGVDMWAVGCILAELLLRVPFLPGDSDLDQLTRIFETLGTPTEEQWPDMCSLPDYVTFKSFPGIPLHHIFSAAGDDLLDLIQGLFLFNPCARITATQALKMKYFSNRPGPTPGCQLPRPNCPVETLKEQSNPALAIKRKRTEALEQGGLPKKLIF
CDK7/CycH/MNAT1, sequence (P51946 whole entry partner): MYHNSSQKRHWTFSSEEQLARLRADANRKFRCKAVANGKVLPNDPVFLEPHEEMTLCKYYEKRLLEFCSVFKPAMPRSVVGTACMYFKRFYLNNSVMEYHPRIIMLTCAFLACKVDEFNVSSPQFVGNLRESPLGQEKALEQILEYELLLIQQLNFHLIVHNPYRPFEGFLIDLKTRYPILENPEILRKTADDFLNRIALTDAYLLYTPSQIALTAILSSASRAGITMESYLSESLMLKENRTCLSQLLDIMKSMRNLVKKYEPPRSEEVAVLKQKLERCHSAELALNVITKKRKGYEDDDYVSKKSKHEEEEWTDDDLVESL
CDK7/CycH/MNAT1, sequence (P51948 whole entry partner): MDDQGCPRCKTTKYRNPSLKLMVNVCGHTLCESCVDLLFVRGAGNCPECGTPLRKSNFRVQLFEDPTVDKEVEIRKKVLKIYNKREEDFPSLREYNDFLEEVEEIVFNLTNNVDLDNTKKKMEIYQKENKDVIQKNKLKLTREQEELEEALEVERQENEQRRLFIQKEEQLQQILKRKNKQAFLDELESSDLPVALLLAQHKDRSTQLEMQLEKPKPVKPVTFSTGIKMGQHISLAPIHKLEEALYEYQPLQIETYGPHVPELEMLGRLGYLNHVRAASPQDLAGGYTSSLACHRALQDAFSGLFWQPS

Take `C=CC(=O)N1CCCCC1C(=O)Nc1ccc(C)c(CNc2nc(NC3CCOCC3)nc3c(C(C)C)cnn23)c1` (centres unmarked) [Compound 34, 1-acryloyl-N-(3-(((8-isopropyl-2-((tetrahydro-2H-pyran-4-yl)amino)pyrazolo[1,5-a][1,3,5]triazin-4-yl)amino)methyl)-4-methylphenyl)piperidine-2-carboxamide]: the inhibition at 10 µM worked out at 73% and the IC50 was greater than 1000 nM.
As to `C=CC(=O)N1CCCCC1C(=O)Nc1cccc(CNc2nc(NC3CCOCC3)nc3c(C(C)C)cnn23)c1F` (centres unmarked) [Compound 35, 1-acryloyl-N-(2-fluoro-3-(((8-isopropyl-2-((tetrahydro-2H-pyran-4-yl)amino)pyrazolo[1,5-a][1,3,5]triazin-4-yl)amino)methyl)phenyl)piperidine-2-carboxamide], the inhibition at 10 µM stood at 99% and the IC50 was less than 300 nM.
The matching figures for `C=CC(=O)N1CCCCC1C(=O)Nc1cc(F)cc(CNc2nc(NC3CCOCC3)nc3c(C(C)C)cnn23)c1` (centres unmarked) [Compound 36, 1-acryloyl-N-(3-fluoro-5-(((8-isopropyl-2-((tetrahydro-2H-pyran-4-yl)amino)pyrazolo[1,5-a][1,3,5]triazin-4-yl)amino)methyl)phenyl)piperidine-2-carboxamide]: 91% and 300 to 1000 nM.
The matching figures for `C=CC(=O)N1CCCCC1C(=O)Nc1ccc(F)c(CNc2nc(NC3CCOCC3)nc3c(C(C)C)cnn23)c1` (centres unmarked) [Compound 37, 1-acryloyl-N-(4-fluoro-3-(((8-isopropyl-2-((tetrahydro-2H-pyran-4-yl)amino)pyrazolo[1,5-a][1,3,5]triazin-4-yl)amino)methyl)phenyl)piperidine-2-carboxamide]: 91% and less than 300 nM.
The matching figures for `C=CC(=O)N[C@H]1CC[C@@H](C(=O)Nc2ccc(F)c(CNc3nc(NC4CCOCC4)nc4c(C(C)C)cnn34)c2)CC1` [Compound 39, (1,4-cis)-4-acrylamido-N-(4-fluoro-3-(((8-isopropyl-2-((tetrahydro-2H-pyran-4-yl)amino)pyrazolo[1,5-a][1,3,5]triazin-4-yl)amino)methyl)phenyl)cyclohexane-1-carboxamide]: 76% and greater than 1000 nM.
`C=CC(=O)N1CCOCC1C(=O)Nc1cncc(CNc2nc(NC3CCOCC3)nc3c(C(C)C)cnn23)c1` (centres unmarked) [Compound 40, 4-acryloyl-N-(5-(((8-isopropyl-2-((tetrahydro-2H-pyran-4-yl)amino)pyrazolo[1,5-a][1,3,5]triazin-4-yl)amino)methyl)pyridin-3-yl)morpholine-3-carboxamide]: the inhibition at 10 µM turned out to be 99% and the IC50 was less than 300 nM.
For `C=CC(=O)Nc1cc(C(=O)Nc2cccc(CNc3nc(NC4CCOCC4)nc4c(C(C)C)cnn34)c2)ccc1C` [Compound 40A, 3-acrylamido-N-(3-(((8-isopropyl-2-((tetrahydro-2H-pyran-4-yl)amino)pyrazolo[1,5-a][1,3,5]triazin-4-yl)amino)methyl)phenyl)-4-methylbenzamide], the IC50 is less than 300 nM.
With `C=CC(=O)Nc1ccc(C)c(C(=O)Nc2cccc(CNc3nc(NC4CCOCC4)nc4c(C(C)C)cnn34)c2)c1` [Compound 40B, 5-acrylamido-N-(3-(((8-isopropyl-2-((tetrahydro-2H-pyran-4-yl)amino)pyrazolo[1,5-a][1,3,5]triazin-4-yl)amino)methyl)phenyl)-2-methylbenzamide], the 50% inhibitory concentration (IC50) is less than 300 nM.
The same measure, in the same setting: the result for `C=CC(=O)N1C(C)CCCC1C(=O)Nc1cccc(CNc2nc(NC3CCOCC3)nc3c(C(C)C)cnn23)c1` (centres unmarked) [Compound 40C, 1-acryloyl-N-(3-(((8-isopropyl-2-((tetrahydro-2H-pyran-4-yl)amino)pyrazolo[1,5-a][1,3,5]triazin-4-yl)amino)methyl)phenyl)-6-methylpiperidine-2-carboxamide] reads less than 300 nM.
With `C=CC(=O)N1CCCCC1C(=O)Nc1cccc(CNc2nc(N[C@H]3CCCOC3)nc3c(C(C)C)cnn23)c1` (stereo partly drawn) [Compound 40D, 1-acryloyl-N-(3-(((8-isopropyl-2-(((S)-tetrahydro-2H-pyran-3-yl)amino)pyrazolo[1,5-a][1,3,5]triazin-4-yl)amino)methyl)phenyl)piperidine-2-carboxamide], the 50% inhibitory concentration (IC50) lay within 300 to 1000 nM.
With `C=CC(=O)N1CCC[C@H](NC(=O)c2cccc(CNc3nc(NC4CCOCC4)nc4c(C(C)C)cnn34)c2)C1` [Compound 41, (S)—N-(1-acryloylpiperidin-3-yl)-3-(((8-isopropyl-2-((tetrahydro-2H-pyran-4-yl)amino)pyrazolo[1,5-a][1,3,5]triazin-4-yl)amino)methyl)benzamide], the inhibition at 10 µM came out at 92% and the IC50 lay in the range of 300 to 1000 nM.
Regarding `C=CC(=O)N1CCC(C(=O)Nc2cc(CNc3nc(NC4CCOCC4)nc4c(C(C)C)cnn34)ccc2F)C1` (centres unmarked) [Compound 43, 1-acryloyl-N-(2-fluoro-5-(((8-isopropyl-2-((tetrahydro-2H-pyran-4-yl)amino)pyrazolo[1,5-a][1,3,5]triazin-4-yl)amino)methyl)phenyl)pyrrolidine-3-carboxamide], the inhibition at 10 µM is 79% and the IC50 lay in the range of 300 to 1000 nM.
The matching figures for `C=CC(=O)N1CCCCC1C(=O)Nc1cc(CNc2nc(NC3CCOCC3)nc3c(C(C)C)cnn23)ccc1F` (centres unmarked) [Compound 44, 1-acryloyl-N-(2-fluoro-5-(((8-isopropyl-2-((tetrahydro-2H-pyran-4-yl)amino)pyrazolo[1,5-a][1,3,5]triazin-4-yl)amino)methyl)phenyl)piperidine-2-carboxamide]: 94% and less than 300 nM.
As to `C=CC(=O)N1CCCC(C(=O)Nc2cccc(C(C)Nc3nc(NC4CCOCC4)nc4c(C(C)C)cnn34)c2)C1` (centres unmarked) [Compound 45, 1-acryloyl-N-(3-(1-((8-isopropyl-2-((tetrahydro-2H-pyran-4-yl)amino)pyrazolo[1,5-a][1,3,5]triazin-4-yl)amino)ethyl)phenyl)piperidine-3-carboxamide], the inhibition at 10 µM is 73% and the half-maximal inhibitory concentration (IC50) was greater than 1000 nM.
The like results for `C=CC(=O)N1CCN(C(=O)Oc2cccc(CNc3nc(NC4CCOCC4)nc4c(C(C)C)cnn34)c2)CC1` [Compound 46, 3-(((8-isopropyl-2-((tetrahydro-2H-pyran-4-yl)amino)pyrazolo[1,5-a][1,3,5]triazin-4-yl)amino)methyl)phenyl 4-acryloylpiperazine-1-carboxylate] were, in that order, 98% and less than 300 nM.
As for `C=CC(=O)Nc1cccc(C(=O)Nc2cccc(CNc3nc(NC4CCOCC4)nc4c(C(C)C)cnn34)c2)c1` [Compound 47, 3-acrylamido-N-(3-(((8-isopropyl-2-((tetrahydro-2H-pyran-4-yl)amino)pyrazolo[1,5-a][1,3,5]triazin-4-yl)amino)methyl)phenyl)benzamide], the inhibition at 10 µM amounted to 100% and the 50% inhibitory concentration (IC50) was less than 300 nM.
Consider `C=CC(=O)Nc1ccccc1C(=O)Nc1cccc(CNc2nc(NC3CCOCC3)nc3c(C(C)C)cnn23)c1` [Compound 48, 2-acrylamido-N-(3-(((8-isopropyl-2-((tetrahydro-2H-pyran-4-yl)amino)pyrazolo[1,5-a][1,3,5]triazin-4-yl)amino)methyl)phenyl)benzamide], for which the inhibition at 10 µM was found to be 98% and the concentration for half-maximal inhibition (IC50) is less than 300 nM.
With `C=CC(=O)Nc1cccc(C(=O)Nc2cccc(CNc3nc(NC4CCOCC4)nc4c(C(C)C)cnn34)c2)c1C` [Compound 48A, 3-acrylamido-N-(3-(((8-isopropyl-2-((tetrahydro-2H-pyran-4-yl)amino)pyrazolo[1,5-a][1,3,5]triazin-4-yl)amino)methyl)phenyl)-2-methylbenzamide], the concentration for half-maximal inhibition (IC50) is less than 300 nM.
For `CC(C)c1cnn2c(NCc3cccc(NC/C=C/C(=O)N(C)C)c3)nc(NC3CCOCC3)nc12` [Compound 49, (E)-4-((3-(((8-isopropyl-2-((tetrahydro-2H-pyran-4-yl)amino)pyrazolo[1,5-a][1,3,5]triazin-4-yl)amino)methyl)phenyl)amino)-N,N-dimethylbut-2-enamide], the inhibition at 10 µM stood at 84% and the IC50 is greater than 1000 nM.
The like results for `CCN(CC)C/C=C/C(=O)Nc1cccc(CNc2nc(NC3CCOCC3)nc3c(C(C)C)cnn23)c1` [Compound 50, (E)-4-(diethylamino)-N-(3-(((8-isopropyl-2-((tetrahydro-2H-pyran-4-yl)amino)pyrazolo[1,5-a][1,3,5]triazin-4-yl)amino)methyl)phenyl)but-2-enamide] were, in that order, 97% and less than 300 nM.
The like results for `CC(C)c1cnn2c(NCc3cccc(NC(=O)/C=C/CN4CCOCC4)c3)nc(NC3CCOCC3)nc12` [Compound 51, (E)-N-(3-(((8-isopropyl-2-((tetrahydro-2H-pyran-4-yl)amino)pyrazolo[1,5-a][1,3,5]triazin-4-yl)amino)methyl)phenyl)-4-morpholinobut-2-enamide] were, in that order, 91% and 300 to 1000 nM.
As for `CCN1CCN(C/C=C/C(=O)Nc2cccc(CNc3nc(NC4CCOCC4)nc4c(C(C)C)cnn34)c2)CC1` [Compound 52, (E)-4-(4-ethylpiperazin-1-yl)-N-(3-(((8-isopropyl-2-((tetrahydro-2H-pyran-4-yl)amino)pyrazolo[1,5-a][1,3,5]triazin-4-yl)amino)methyl)phenyl)but-2-enamide], the inhibition at 10 µM came to 96%.

Broadly, the inhibition is the share of the control response that was lost under treatment. The IC50 is the point on the concentration scale where inhibition reaches its midpoint.
